Measured values as given in patent US20240199648A1, “MAP4K1 INHIBITORS” (Blueprint Medicines Corporation, priority 2021, published 2024).
pEC50, pIC50: −log10 of the molar value. Where two headings read alike, the source gives them in different places.

What was measured:
[1] = target: T1, MAP4K1 (HPK1) (Homo sapiens, UniProt Q92918); assay: Inhibition of MAP4K1 biochemical enzymatic activity (EZReader 2 electrophoretic mobility shift assay); settings: HPK1 (Invitrogen), S6K2tide 1.5 μM, 120 min; ATP 26 μM or 1000 μM (not stated which)
T1 construct: purchased Invitrogen
From the text: MAP4K1 (HPK1) and relevant off-target enzymatic activity was monitored using the Perkin Elmer electrophoretic mobility shift technology platform—the EZReader 2. […] Within the linear, steady-state phase of the kinase enzymatic reaction, the mixed pool of phosphorylated (product) and non-phosphorylated (substrate) peptides was passed through the microfluidic system of the PerkinElmer EZ Reader 2, under an applied electric potential difference. The presence of the phosphate group on the product peptide provided a difference in mass and charge between that of the substrate peptide, resulting in a separation of the substrate and product pools in the sample (Perrin et al. 2010). As the product and substrate peptide mixture passes the lasers within the instrument, these pools are detected (λex=488 nm, λem=568 nm) and resolved as separate peaks. The ratio between these peaks reflects the activity of the compound at that concentration, in that well, under those conditions.
Inhibitors were dissolved in 100% DMSO at a stock concentration of 10 mM. A 100×, 10-point, 4-fold serial dilution of each inhibitor was created in 100% DMSO either manually or on a Hamilton STAR liquid handler, starting at a relevant concentration, usually 1 mM. A volume of 0.130 μL of each concentration was transferred to the relevant wells of a 384-well plate (Greiner 781 201) in diplicate using a TTPLabtech Mosquito nano-litre dispenser. Using a Multidrop Combi, the remaining constituents of the kinase reaction were added to the 130 nL of dosed compound as follows (see table below for final reaction details):
Enzyme activity assays at the ^APPKM for ATP or 1 mM ATP: In each well of a 384-well plate, 0.1-15 nM of untreated enzyme was incubated in a total of 13 μL of buffer (100 mM HEPES pH 7.5, 0.015% Brij 35, 10 mM MgCl2, 1 mM DTT) with 1.5 μM fluorescent peptid and 20-1000 μM ATP, at 25° C., for 60-180 minutes in the presence or absence of a dosed concentration series of compound (1% DMSO final concentration). The kinase reactions were stopped by the addition of 70 μl of Stop buffer (100 mM HEPES pH 7.5, 0.015% Brij 35, 35 mM EDTA and 0.2% of Coating Reagent 3 (Caliper Lifesciences)). The plates were read on a Caliper EZReader 2 as described above.

[2] = tested on: Primary T Cell; assay: T cell enhancement of cytokines: IL2 measurement (HTRF) in expanded CD3+ T cells stimulated with anti-CD3/anti-CD28; type: cell-based, human; settings: plate-bound anti-CD3 and soluble anti-CD28, 24 h, read-out: IL-2 Primary T Cell EC50
Procedure: T cells are isolated from whole blood of healthy donors by immunomagnetic negative selection following manufacture's protocol (StemCell Technologies, human T cell isolation kit). Purity of isolated cells is assessed by flow cytometry and yields 95-98% CD3^+ T cells. For expansion of T cells, 1×10^6 cells/well are plated in serum free cell expansion media (ThermoFisher) containing 30U of recombinant human IL2 (R&D) and stimulated with 25 ul of CD3/CD28 beads (Invitrogen) in 24 well plates for 3-4 days. T cells are then expanded in 175 cm flasks and maintained at a cell density of 1 to 2.5×10^6 cells/ml days by addition of ⅔ of fresh media every 2-3 days. After 10-14 days, cells are frozen in BamBanker freezing media (Thermo) and stored in liquid nitrogen.
For IL2 measurement, expanded CD3+ T cells are dispensed at 100K cells/well (cultured in X-VIVO 10 Serum-free media) and are stimulated with plate-bound anti-CD3 and soluble anti-CD28 in the presence of vehicle or compound of the disclosure at various concentrations for 24 h. As outlined in the manufacturer's protocol (Cisbio), 16 μL of conditioned media is transferred to a white 384-well low volume plate. Following a 24 h incubation with the anti-IL2 antibodies, the homogenous time resolved fluorescence (HTRF) is measured.

T1 sequence (Q92918 whole entry): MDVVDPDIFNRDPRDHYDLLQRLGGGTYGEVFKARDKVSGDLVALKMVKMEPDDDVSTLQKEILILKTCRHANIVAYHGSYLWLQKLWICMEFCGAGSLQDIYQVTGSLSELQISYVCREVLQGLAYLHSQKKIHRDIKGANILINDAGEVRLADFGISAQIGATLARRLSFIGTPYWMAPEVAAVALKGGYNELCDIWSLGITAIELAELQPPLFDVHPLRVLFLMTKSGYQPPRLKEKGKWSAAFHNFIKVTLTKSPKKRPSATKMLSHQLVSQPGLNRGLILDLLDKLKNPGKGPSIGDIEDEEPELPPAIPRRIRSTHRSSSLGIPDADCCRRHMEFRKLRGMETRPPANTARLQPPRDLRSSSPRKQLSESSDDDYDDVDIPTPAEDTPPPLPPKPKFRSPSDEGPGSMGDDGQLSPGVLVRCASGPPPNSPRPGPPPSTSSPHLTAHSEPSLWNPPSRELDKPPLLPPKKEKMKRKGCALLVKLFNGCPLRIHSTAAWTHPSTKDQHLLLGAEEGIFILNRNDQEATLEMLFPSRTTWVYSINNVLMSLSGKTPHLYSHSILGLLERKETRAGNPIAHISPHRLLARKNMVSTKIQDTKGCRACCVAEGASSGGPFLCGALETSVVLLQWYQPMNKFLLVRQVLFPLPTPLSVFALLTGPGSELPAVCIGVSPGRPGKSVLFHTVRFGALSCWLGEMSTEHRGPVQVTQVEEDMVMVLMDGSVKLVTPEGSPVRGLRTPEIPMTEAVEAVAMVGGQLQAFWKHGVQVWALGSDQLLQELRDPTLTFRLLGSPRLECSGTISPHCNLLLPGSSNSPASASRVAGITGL

SMILES | pIC50 [1] | pEC50 ([2]; Homo sapiens, T-cell, 24 h) | pEC50 [2]
CC[C@@H](N)c1cnc(OC2CN(C(=O)[C@@H]3C[C@@H]3F)C2)c2cnc(Nc3ccc4c(n3)[C@@H](C)C(C)(C)OC4=O)cc12 (single isomer, unassigned) [Compound 11, (R)-2-((5-((R)-1-aminopropyl)-8-((1-((1S,2S)-2-fluorocyclopropane-1-carbonyl)azetidin-3-yl)oxy)-2,7-naphthyridin-3-yl)amino)-7,7,8-trimethyl-7,8-dihydro-5H-pyrano[4,3-b]pyridin-5-one or (R)-2-((5-((S)-1-aminopropyl)-8-((1-((1S,2S)-2-fluorocyclopropane-1-carbonyl)azetidin-3-yl)oxy)-2,7-naphthyridin-3-yl)amino)-7,7,8-trimethyl-7,8-dihydro-5H-pyrano[4,3-b]pyridin-5-one] | 9.20 | 7.41 | 
CC[C@@H](N)c1ccc(OC2CN(C(=O)C3CC3)C2)c2cnc(Nc3ccc4c(n3)[C@@H](C)C(C)(C)OC4=O)cc12 (single isomer, unassigned) [Compound 40, (R)-2-((5-((R)-1-Aminopropyl)-8-((1-(cyclopropanecarbonyl)azetidin-3-yl)oxy)isoquinolin-3-yl)amino)-7,7,8-trimethyl-7,8-dihydro-5H-pyrano[4,3-b]pyridin-5-one or (R)-2-((5-((S)-1-aminopropyl)-8-((1-(cyclopropanecarbonyl)azetidin-3-yl)oxy)isoquinolin-3-yl)amino)-7,7,8-trimethyl-7,8-dihydro-5H-pyrano[4,3-b]pyridin-5-one] | 9.72 | 6.79 | 
C[C@@H]1c2nc(Nc3cc4c(C(C)(C)N)cnc(OC5CC(C)(C(=O)N(C)C)C5)c4cn3)ccc2C(=O)OC1(C)C (single isomer, unassigned) [Compound 81] | 9.80 | 7.15 | 
CC[C@@H](N)c1ccc(OC2CN(C(=O)[C@@H]3C[C@@H]3F)C2)c2cnc(Nc3ccc4c(n3)[C@@H](C)C(C)(C)OC4=O)cc12 (single isomer, unassigned) [Compound 83, (R)-2-((5-((R)-1-Aminopropyl)-8-((1-((1S,2S)-2-fluorocyclopropane-1-carbonyl)azetidin-3-yl)oxy)isoquinolin-3-yl)amino)-7,7,8-trimethyl-7,8-dihydro-5H-pyrano[4,3-b]pyridin-5-one or (R)-2-((5-((S)-1-aminopropyl)-8-((1-((1S,2S)-2-fluorocyclopropane-1-carbonyl)azetidin-3-yl)oxy)isoquinolin-3-yl)amino)-7,7,8-trimethyl-7,8-dihydro-5H-pyrano[4,3-b]pyridin-5-one] | 9.96 |  | 7.62
COCC(C)(N)c1cnc(OC2CN(C(=O)C3CC3F)C2)c2cnc(Nc3ccc4c(n3)C(C)C(C)OC4=O)cc12 (single isomer, unassigned) [Compound 96] | 10.05 |  | 7.99
COCC(C)(N)c1cnc(OC2CN(C(=O)C3CC3F)C2)c2cnc(Nc3ccc4c(n3)C(C)C(C)OC4=O)cc12 (single isomer, unassigned) [Compound 97] | 9.44 |  | 7.30
CCC[C@@](C)(N)c1ncc(OC2CN(C(C)=O)C2)c2cnc(Nc3ccc4c(n3)CC(C)(C)OC4=O)cc12 (single isomer, unassigned) [Compound 112] | 9.62 | 7.99 | 
CCCC(C)(N)c1cnc(OC2CN(C(C)=O)C2)c2cnc(Nc3ccc4c(n3)[C@@H](C)[C@H](C)OC4=O)cc12 (single isomer, unassigned) [Compound 113] | 9.96 | 8.13 | 
CCCC(C)(N)c1cnc(OC2CN(C(C)=O)C2)c2cnc(Nc3ccc4c(n3)[C@@H](C)C(C)(C)OC4=O)cc12 (single isomer, unassigned) [Compound 115] | 10.00 | 8.27 | 
CC[C@H](N)c1cnc(O[C@H]2C[C@@H](C(=O)N3CC(OC)C3)C2)c2cnc(Nc3ccc4c(n3)[C@@H](C)C(C)(C)OC4=O)cc12 (single isomer, unassigned) [Compound 127] | 10.05 | 7.13 | 
CC[C@@H](N)c1ccc(OC2CN(C(C)=O)C2)c2cnc(Nc3ccc4c(n3)[C@@H](C)C(C)(C)OC4=O)cc12 (stereo in doubt) [Compound 20] | 9.59 | 7.00 | 
CC[C@@H](N)c1cnc(OC2CN(C(=O)C3CC3)C2)c2cnc(Nc3ccc4c(n3)[C@@H](C)C(C)(C)OC4=O)cc12 (stereo in doubt) [Compound 53] | 9.27 | 7.24 | 
CC(=O)N1CC(Oc2ncc(C(C)(C)N)c3cc(Nc4ccc5c(n4)[C@@H](C)[C@H](C)OC5=O)ncc23)C1 [Compound 1, (7S,8R)-2-((8-((1-acetylazetidin-3-yl)oxy)-5-(2-aminopropan-2-yl)-2,7-naphthyridin-3-yl)amino)-7,8-dimethyl-7,8-dihydro-5H-pyrano[4,3-b]pyridin-5-one] | 9.74 | 7.46 | 
CC(=O)N1C[C@@H](Oc2ncc(C(C)(C)N)c3cc(Nc4ccc5c(n4)[C@@H](C)[C@H](C)OC5=O)ncc23)[C@@H]1C [Compound 3] | 9.48 | 7.47 | 
C[C@@H]1OC(=O)c2ccc(Nc3cc4c(C(C)(C)N)cnc(O[C@H]5C[C@@H](C(=O)N6CC(F)C6)C5)c4cn3)nc2[C@H]1C [Compound 84] | 9.62 |  | 
COC[C@@](C)(N)c1cnc(O[C@H]2CN(C(=O)C3CC3)[C@@H]2C)c2cnc(Nc3ccc4c(n3)[C@@H](C)[C@H](C)OC4=O)cc12 [Compound 89] | 9.46 |  | 
C[C@@H]1c2nc(Nc3cc4c(C(C)(C)N)cnc(OC5CN(C(=O)[C@@H]6CCCO6)C5)c4cn3)ccc2C(=O)OC1(C)C [Compound 90] | 9.74 |  | 
COC[C@@](C)(N)c1cnc(O[C@@H]2CN(C(=O)C3CC3)[C@H]2C)c2cnc(Nc3ccc4c(n3)[C@@H](C)[C@H](C)OC4=O)cc12 [Compound 91] | 9.51 |  | 
COC1(C(=O)N2CC(Oc3ncc(C(C)(C)N)c4cc(Nc5ccc6c(n5)[C@@H](C)C(C)(C)OC6=O)ncc34)C2)CC1 [Compound 93] | 9.77 |  | 
C[C@@H]1c2nc(Nc3cc4c(C(C)(C)N)cnc(O[C@H]5C[C@@H](C(=O)N6CC(F)C6)C5)c4cn3)ccc2C(=O)OC1(C)C [Compound 94] | 9.85 |  | 
C[C@@H]1OC(=O)c2ccc(Nc3cc4c(C(C)(C)N)cnc(O[C@H]5C[C@@H](C(=O)N6CC(F)(F)C6)C5)c4cn3)nc2[C@H]1C [Compound 98] | 9.72 |  | 
C[C@@H]1c2nc(Nc3cc4c(C(C)(C)N)cnc(OC5CN(C(=O)C6(C(F)(F)F)CC6)C5)c4cn3)ccc2C(=O)OC1(C)C [Compound 103] | 9.62 |  | 
CC(=O)N1CC(Oc2ncc(C(C)(C)N)c3cc(Nc4ccc5c(n4)CCOC5=O)ncc23)C1 [Compound 108] | 8.54 |  | 
CC(=O)N1CC(Oc2ncc(C(C)(C)N)c3cc(Nc4ccc5c(n4)C(C)(C)OC5=O)ncc23)C1 [Compound 109] | 8.40 |  | 
CC(=O)N1CC(Oc2ncc(C(C)(C)N)c3cc(Nc4ccc5c(n4)C(C)(C)COC5=O)ncc23)C1 [Compound 110] | 9.21 |  | 
C[C@@H]1c2nc(Nc3cc4c(C(C)(C)N)ccc(OCCOC(=O)N(C)C)c4cn3)ccc2C(=O)OC1(C)C [Compound 114] | 10.15 |  | 
CC(=O)N1CCC[C@@H]1COc1ncc(C(C)(C)N)c2cc(Nc3ccc4c(n3)[C@@H](C)C(C)(C)OC4=O)ncc12 [Compound 116] | 8.95 |  | 
CC(=O)N1CCC[C@H]1COc1ncc(C(C)(C)N)c2cc(Nc3ccc4c(n3)[C@@H](C)C(C)(C)OC4=O)ncc12 [Compound 117] | 8.69 |  | 
COC[C@@](C)(N)c1cnc(O[C@H]2C[C@H](C(=O)N(C)C)C2)c2cnc(Nc3ccc4c(n3)[C@@H](C)[C@H](C)OC4=O)cc12 [Compound 124] | 9.59 |  | 
